Several values for one entry are separate records, joined by “and”; a condition that tells them apart may be missing. Equal values may be shown once. Toxic doses and inconclusive results are not listed. Rule as the data show it: active = T/C of 150% or more; inactive = T/C below 125%.
System: L1210 leukemia ip in BDF1 mice, survival T/C
Assay: NCI In Vivo Anticancer Drug Screen. Data for tumor model L1210 Leukemia (intraperitoneal) in B6D2F1 (BDF1) mice
Conditions: endpoint: mean survival time, higher = longer survival
Procedure, shortened: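 Tumor cells were implanted, animals were treated, and survival was followed. The result divides the treated measurement by the vehicle-control measurement.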

[1] = dose: 100.0 mg/kg/injection, schedule: Q01DX009 (ip), vehicle: saline with Tween-80
[2] = dose: 200.0 mg/kg/injection, schedule: Q01DX009 (ip), vehicle: saline with Tween-80
[3] = dose: 400.0 mg/kg/injection, schedule: Q01DX009 (ip), vehicle: saline with Tween-80
[4] = dose: 100.0 mg/kg/injection, schedule: Q04DX003 (ip), vehicle: Klucel (hydroxypropylcellulose) (HPC)
[5] = dose: 200.0 mg/kg/injection, schedule: Q04DX003 (ip), vehicle: Klucel (hydroxypropylcellulose) (HPC)
[6] = dose: 400.0 mg/kg/injection, schedule: Q04DX003 (ip), vehicle: Klucel (hydroxypropylcellulose) (HPC)
[7] = dose: 100.0 mg/kg/injection, schedule: Q01DX001 (ip), vehicle: saline
[8] = dose: 200.0 mg/kg/injection, schedule: Q01DX001 (ip), vehicle: saline
[9] = dose: 6.25 mg/kg/injection, schedule: Q01DX009 (ip), vehicle: Klucel (hydroxypropylcellulose) (HPC)
[10] = dose: 100.0 mg/kg/injection, schedule: Q04DX002 (ip), vehicle: saline with Tween-80
[11] = dose: 12.5 mg/kg/injection, schedule: Q01DX009 (ip), vehicle: Klucel (hydroxypropylcellulose) (HPC)
[12] = dose: 25.0 mg/kg/injection, schedule: Q01DX009 (ip), vehicle: Klucel (hydroxypropylcellulose) (HPC)

Measured: T/C

O=c1c(O)c(-c2ccc(O)cc2O)oc2cc(O)cc(O)c12
inactive: [1] 103 % of control | [2] 98 % of control | [3] 90 % of control

NNC(=O)CCN1CC1
inactive: [4] 109 % of control | [5] 107 % of control | [6] 115 % of control

O=C(Nc1c(Br)cc2c(c1Br)Cc1cc(Br)ccc1-2)C(F)(F)F
inactive: [7] 94 % of control | [8] 101 % of control | dose: 400.0 mg/kg/injection, schedule: Q01DX001 (ip), vehicle: saline 106 % of control

CN=C(c1ccc(NC(=O)c2cc(C(=O)Nc3ccc(C(=NC)N(C)C)cc3)cc([N+](=O)[O-])c2)cc1)N(C)C
inactive: dose: 1.88 mg/kg/injection, schedule: Q01DX Z (ip), vehicle: saline 100 % of control | dose: 3.75 mg/kg/injection, schedule: Q01DX Z (ip), vehicle: saline 100 % of control | dose: 7.5 mg/kg/injection, schedule: Q01DX Z (ip), vehicle: saline 98 % of control

CCCCP(=[Se])(CCCC)CCCC
inactive: dose: 0.78 mg/kg/injection, schedule: Q01DX009 (ip), vehicle: Klucel (hydroxypropylcellulose) (HPC) 93 % of control | dose: 1.56 mg/kg/injection, schedule: Q01DX009 (ip), vehicle: Klucel (hydroxypropylcellulose) (HPC) 97 % of control | dose: 3.12 mg/kg/injection, schedule: Q01DX009 (ip), vehicle: Klucel (hydroxypropylcellulose) (HPC) 112 % of control | [9] 104 % of control

CC1=C(Br)C(=O)C(Br)=C(Br)C1=O
inactive: dose: 100.0 mg/kg/injection, schedule: Q04DX003 (ip), vehicle: acetone 96 % of control

C=CC[n+]1ccccc1C
inactive: dose: 50.0 mg/kg/injection, schedule: Q01DX009 (ip), vehicle: saline with Tween-80 91 % of control | [1] 91 % of control

CCCSCC(C)C
inactive: [1] 108 % of control | [2] 98 % of control

CCOC(=O)C1C(c2ccccc2)C1c1ccc(C)cc1 (configuration not stated)
inactive: dose: 25.0 mg/kg/injection, schedule: Q04DX002 (ip), vehicle: saline with Tween-80 103 % of control | dose: 50.0 mg/kg/injection, schedule: Q04DX002 (ip), vehicle: saline with Tween-80 103 % of control | [10] 98 % of control

[Br][Hg][CH2]COC[CH2][Hg][Br]
inactive: [9] 103 % of control | [11] 93 % of control | [12] 112 % of control

O=C(O)C1CSC(c2ccccc2)N1 (configuration not stated)
inactive: dose: 100.0 mg/kg/injection, schedule: Q01DX001 (ip), vehicle: other 105 % of control | dose: 176.0 mg/kg/injection, schedule: Q01DX001 (ip), vehicle: other 109 % of control and 91 % of control | dose: 200.0 mg/kg/injection, schedule: Q01DX001 (ip), vehicle: other 102 % of control | dose: 267.0 mg/kg/injection, schedule: Q01DX001 (ip), vehicle: other 96 % of control and 90 % of control | dose: 600.0 mg/kg/injection, schedule: Q01DX001 (ip), vehicle: other 101 % of control and 90 % of control

Clc1[nH]cnc1Br
inactive: dose: 100.0 mg/kg/injection, schedule: Q04DX003 (ip), vehicle: saline with Tween-80 107 % of control | dose: 200.0 mg/kg/injection, schedule: Q04DX003 (ip), vehicle: saline with Tween-80 93 % of control | dose: 400.0 mg/kg/injection, schedule: Q04DX003 (ip), vehicle: saline with Tween-80 104 % of control

COc1cc2cnccc2cc1OCc1ccccc1
inactive: dose: 25.0 mg/kg/injection, schedule: Q01DX009 (ip), vehicle: water 96 % of control | dose: 50.0 mg/kg/injection, schedule: Q01DX009 (ip), vehicle: water 97 % of control | dose: 100.0 mg/kg/injection, schedule: Q01DX009 (ip), vehicle: water 100 % of control

Nc1cc(Cl)ccc1O
inactive: [7] 98 % of control | [8] 91 % of control

CC1=CC(=O)OC2(C1)CC1CCC2CN1C (configuration not stated)
inactive: dose: 50.0 mg/kg/injection, schedule: Q01DX001 (ip), vehicle: saline 95 % of control | [7] 101 % of control

Cc1ccc(-n2c(O)c(C=N)c(=O)n(-c3ccc(C)cc3)c2=O)cc1
inactive: [1] 98 % of control | [2] 98 % of control | [3] 95 % of control

O=S(=O)(Nc1ccccc1)c1ccc2c(Cl)cc(S(=O)(=O)Nc3ccccc3)cc2c1
inactive: dose: 100.0 mg/kg/injection, schedule: Q01DX001 (ip), vehicle: saline with Tween-80 93 % of control | dose: 200.0 mg/kg/injection, schedule: Q01DX001 (ip), vehicle: saline with Tween-80 93 % of control | dose: 400.0 mg/kg/injection, schedule: Q01DX001 (ip), vehicle: saline with Tween-80 91 % of control

C/C(=N\N)C(=O)c1ccccc1
inactive: dose: 100.0 mg/kg/injection, schedule: Q01DX001 (ip), vehicle: Klucel (hydroxypropylcellulose) (HPC) 103 % of control | [4] 98 % of control | dose: 200.0 mg/kg/injection, schedule: Q01DX001 (ip), vehicle: Klucel (hydroxypropylcellulose) (HPC) 93 % of control | [5] 94 % of control | dose: 400.0 mg/kg/injection, schedule: Q01DX001 (ip), vehicle: Klucel (hydroxypropylcellulose) (HPC) 101 % of control | [6] 96 % of control

CCCCC(C(=O)OCC)C(CCC1CCCCC1)(C(=O)OCC)C(=O)OCC (configuration not stated)
inactive: dose: 100.0 mg/kg/injection, schedule: Q01DX009 (ip), vehicle: Klucel (hydroxypropylcellulose) (HPC) 95 % of control | [4] 96 % of control | dose: 200.0 mg/kg/injection, schedule: Q01DX009 (ip), vehicle: Klucel (hydroxypropylcellulose) (HPC) 110 % of control | [5] 106 % of control | dose: 400.0 mg/kg/injection, schedule: Q01DX009 (ip), vehicle: Klucel (hydroxypropylcellulose) (HPC) 105 % of control | [6] 95 % of control

O=c1[nH]c2c(Cl)cccc2c2ccccc12
inactive: dose: 100.0 mg/kg/injection, schedule: Q01DX001 (ip), vehicle: carboxymethylcellulose (CMC) 100 % of control | dose: 200.0 mg/kg/injection, schedule: Q01DX001 (ip), vehicle: carboxymethylcellulose (CMC) 107 % of control | dose: 400.0 mg/kg/injection, schedule: Q01DX001 (ip), vehicle: carboxymethylcellulose (CMC) 102 % of control

Fc1c(F)c(F)c(Oc2c(F)c(F)c(P(c3c(F)c(F)c(Oc4c(F)c(F)c(F)c(F)c4F)c(F)c3F)c3c(F)c(F)c(Oc4c(F)c(F)c(F)c(F)c4F)c(F)c3F)c(F)c2F)c(F)c1F
inactive: dose: 75.0 mg/kg/injection, schedule: Q04DX003 (ip), vehicle: Klucel (hydroxypropylcellulose) (HPC) 104 % of control | dose: 150.0 mg/kg/injection, schedule: Q04DX003 (ip), vehicle: Klucel (hydroxypropylcellulose) (HPC) 91 % of control | dose: 300.0 mg/kg/injection, schedule: Q04DX003 (ip), vehicle: Klucel (hydroxypropylcellulose) (HPC) 90 % of control

CC(=O)OC1CC(OC2C(O)CC(OC3C(O)CC(OC4CCC5(C)C(CCC6C5CCC5(C)C(C7=CC(=O)OC7)CCC65O)C4)OC3C)OC2C)OC(C)C1OC1OC(CO)C(O)C(O)C1O (configuration not stated)
inactive: dose: 10.0 mg/kg/injection, schedule: Q01DX001 (ip), vehicle: saline 101 % of control

CCn1c2ccccc2c2nnc(NCCCO)nc21
inactive: [10] 96 % of control | dose: 100.0 mg/kg/injection, schedule: Q04DX002 (ip), vehicle: saline 101 % of control | dose: 200.0 mg/kg/injection, schedule: Q04DX002 (ip), vehicle: saline with Tween-80 100 % of control | dose: 200.0 mg/kg/injection, schedule: Q04DX002 (ip), vehicle: saline 97 % of control | dose: 400.0 mg/kg/injection, schedule: Q04DX002 (ip), vehicle: saline with Tween-80 94 % of control | dose: 400.0 mg/kg/injection, schedule: Q04DX002 (ip), vehicle: saline 101 % of control

C1COC(C2OCCO2)C1 (configuration not stated)
inactive: dose: 100.0 mg/kg/injection, schedule: Q01DX009 (ip), vehicle: saline 103 % of control | dose: 200.0 mg/kg/injection, schedule: Q01DX009 (ip), vehicle: saline 90 % of control | dose: 400.0 mg/kg/injection, schedule: Q01DX009 (ip), vehicle: saline 95 % of control

CCCCCCCCCCCCCCCCCCOS(=O)(=O)c1ccc(C)cc1
inactive: [11] 98 % of control | [12] 95 % of control | dose: 50.0 mg/kg/injection, schedule: Q01DX009 (ip), vehicle: Klucel (hydroxypropylcellulose) (HPC) 95 % of control

O=C(CCCc1ccc(N(CCCl)CCCl)cc1)NCc1ccccc1
inactive: dose: 4.0 mg/kg/injection, schedule: Q12HX018 (ip), vehicle: other 112 % of control | dose: 6.0 mg/kg/injection, schedule: Q12HX018 (ip), vehicle: other 103 % of control | dose: 8.0 mg/kg/injection, schedule: Q12HX018 (ip), vehicle: other 108 % of control

— PubChem BioAssay AID248 (DTP/NCI, 2004)
